In ChEMBL document CHEMBL1201862, “PubChem BioAssay data set” (2004):
The source made the active and inactive calls.

Key:
Cytochrome P450 3A4 = Cytochrome P450 3A4 (Homo sapiens, UniProt P08684);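 further: CYP3A4 tested as one member of a cytochrome P450 panel screen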
Cytochrome P450 1A2 [1] = molecular target: T1, Cytochrome P450 1A2 (Homo sapiens, UniProt P05177);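 further: PubChem cytochrome P450 panel assay, CYP1A2 panel member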
T1 sequence (P05177 whole entry): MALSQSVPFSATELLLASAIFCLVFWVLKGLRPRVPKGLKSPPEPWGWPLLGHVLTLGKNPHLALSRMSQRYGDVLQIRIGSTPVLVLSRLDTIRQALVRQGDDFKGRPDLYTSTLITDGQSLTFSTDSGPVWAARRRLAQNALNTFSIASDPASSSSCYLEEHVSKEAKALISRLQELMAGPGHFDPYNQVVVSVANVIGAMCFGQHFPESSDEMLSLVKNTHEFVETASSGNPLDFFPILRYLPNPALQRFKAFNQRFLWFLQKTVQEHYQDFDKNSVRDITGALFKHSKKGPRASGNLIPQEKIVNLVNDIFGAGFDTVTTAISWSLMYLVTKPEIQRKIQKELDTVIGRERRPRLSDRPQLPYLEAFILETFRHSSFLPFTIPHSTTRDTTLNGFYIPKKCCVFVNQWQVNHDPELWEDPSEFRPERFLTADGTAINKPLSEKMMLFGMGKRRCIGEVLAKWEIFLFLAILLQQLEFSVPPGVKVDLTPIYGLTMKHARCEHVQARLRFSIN

[2] = molecular target: T2, Heat shock factor protein 1 (Mus musculus, UniProt P38532); assay: decrease of HSF1-responsive luciferase luminescence – cell-based, NIH3T3, dose retest, confirmation (AID 2382); type: functional;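 further: NIH3T3 fibroblasts with HSF1-driven luciferase reporter stressed by proteasome inhibitor MG132; luminescence from HSF1-driven luciferase expression after 8 hours of MG132 stress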
T2 sequence (P38532 whole entry): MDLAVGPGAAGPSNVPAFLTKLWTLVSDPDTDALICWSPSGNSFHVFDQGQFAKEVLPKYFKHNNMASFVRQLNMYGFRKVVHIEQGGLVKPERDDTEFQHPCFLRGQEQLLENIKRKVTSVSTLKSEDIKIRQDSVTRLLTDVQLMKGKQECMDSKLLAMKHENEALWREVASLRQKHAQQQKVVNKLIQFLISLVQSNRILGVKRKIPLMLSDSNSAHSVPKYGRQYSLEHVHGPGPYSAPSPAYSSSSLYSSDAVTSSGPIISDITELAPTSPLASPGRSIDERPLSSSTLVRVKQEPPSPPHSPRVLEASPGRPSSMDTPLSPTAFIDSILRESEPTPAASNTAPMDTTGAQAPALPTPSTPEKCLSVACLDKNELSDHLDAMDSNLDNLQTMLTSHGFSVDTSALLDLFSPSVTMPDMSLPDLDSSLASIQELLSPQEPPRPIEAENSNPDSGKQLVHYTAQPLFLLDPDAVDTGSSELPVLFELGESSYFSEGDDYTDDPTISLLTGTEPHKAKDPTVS

Jurkat = assay: blockers of NF-kB activation in T cells – Jurkat, luciferase reporter, luminescence, B- and T-cell, dose response (AID 489004); type: functional, cell-based; conditions: Homo sapiens;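 further: NF-kB luciferase reporter Jurkat cells stimulated with PMA plus ionomycin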
[3] = HEK-293T viability loss, compound-treated – cell-based, uHTS hits, cytotoxicity control for B/T-cell NF-kB inhibitor project, dose response (AID 489019); type: functional;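 further: IC50 reflects cytotoxicity as loss of cell viability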
[4] = molecular target: T3, Microphthalmia-associated transcription factor (Homo sapiens, UniProt O75030); assay: reducers of TRPM1 reporter luminescence, concentration series – cell-based, SK-MEL-5, cherry-picked, set 3, MITF inhibitor project, dose response (AID 493073); type: functional;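 further: SK-MEL-5 melanoma cells with luciferase driven by the MITF target TRPM1 promoter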
T3 sequence (O75030 whole entry): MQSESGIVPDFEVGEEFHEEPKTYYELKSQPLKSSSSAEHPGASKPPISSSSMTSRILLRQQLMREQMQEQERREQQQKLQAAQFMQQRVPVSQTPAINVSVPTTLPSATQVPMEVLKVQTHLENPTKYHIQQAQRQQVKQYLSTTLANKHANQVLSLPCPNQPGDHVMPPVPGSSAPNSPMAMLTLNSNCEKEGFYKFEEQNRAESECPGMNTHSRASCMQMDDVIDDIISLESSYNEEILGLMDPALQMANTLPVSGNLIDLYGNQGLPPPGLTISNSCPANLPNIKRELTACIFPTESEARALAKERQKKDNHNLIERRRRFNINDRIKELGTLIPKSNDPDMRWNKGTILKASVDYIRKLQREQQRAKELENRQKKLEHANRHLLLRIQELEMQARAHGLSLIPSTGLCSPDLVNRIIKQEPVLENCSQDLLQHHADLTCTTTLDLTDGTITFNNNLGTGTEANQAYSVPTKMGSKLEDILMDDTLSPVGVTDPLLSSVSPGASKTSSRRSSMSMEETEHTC

Paired box protein Pax-8 = Paired box protein Pax-8 (Homo sapiens, UniProt Q06710); assay: PAX8 transcriptional activity inhibition in RMG-I – RMG-I cells, luciferase, cherry-pick, dose response (AID 687027); type: functional, cell-based;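 further: luciferase reporter driven by Pax8 target thyroperoxidase promoter measured by SteadyGlo luminescence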
[5] = HGIII-sPLA2 enzyme inhibition potency – biochemical, QFRET, IC50, dose response (AID 743457);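 further: green fluorescence rise as the enzyme cleaves BODIPY PC-A2 in liposomes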
[6] = general cell-killing toxicity readout – plate reader, dry powder samples, cytotoxicity control for PAX8 inhibitor project, dose response (AID 743021); type: functional, cell-based
Cytochrome P450 1A2 [7] = molecular target: T1, Cytochrome P450 1A2; remark: listed apart in the source
[8] = Luminescence Cell-Based Dose Confirmation HTS to Identify Activators of 5'UTR Stem-Loop Driven Alpha-Synuclein mRNA Translation in H4 Neuroglioblastoma Cells. [Related pubchem assays: 1829 (Project Summary), 1814 (Primary HTS)]; type: functional
[9] = A Cell Based Secondary Assay To Explore Cytotoxicity of Compounds that Sensitize Mycobacterium Tuberculosis to Beta-Lactam Antibiotics.; type: functional
H4 = assay: Luminescence Cell-Based Dose Response HTS to Identify Activators of 5'UTR Stem-Loop Driven Prion Protein mRNA Translation in H4 Neuroglioblastoma Cells. [Related pubchem assays: 1829 (Project Summary), 1814 (Primary HTS)]; type: functional; conditions: Homo sapiens
A-375 = assay: MITF: Counter assay: A375 proliferation Measured in Cell-Based System Using Plate Reader - 2084-03_Inhibitor_Dose_DryPowder_Activity. [Related pubchem assays (depositor defined):AID488944]; type: functional; conditions: Homo sapiens
[10] = luciferase reporter signal suppression in cells – H4 neuroglioma cells, luminescence, dose response (AID 1990); type: functional, cell-based
[11] = Luminescence Cell-Based Dose Response HTS to Identify Inhibitors of 5'UTR Stem-Loop Driven Prion Protein mRNA Translation in H4 Neuroglioblastoma Cells. [Related pubchem assays: 1827 (Project Summary), 1813 (Primary HTS)]; type: functional
[12] = alpha-synuclein stem-loop luciferase translation blockers – H4 neuroglioma cells, luminescence, confirmation (AID 1988); type: functional, cell-based
[13] = molecular target: T4, Replicative DNA helicase DnaB (Mycobacterium tuberculosis, UniProt P9WMR3); assay: DnaB intein splicing inhibitors, dose response, biochemical, cell-free fluorescence (AID 449749); type: functional
T4 sequence (P9WMR3 whole entry): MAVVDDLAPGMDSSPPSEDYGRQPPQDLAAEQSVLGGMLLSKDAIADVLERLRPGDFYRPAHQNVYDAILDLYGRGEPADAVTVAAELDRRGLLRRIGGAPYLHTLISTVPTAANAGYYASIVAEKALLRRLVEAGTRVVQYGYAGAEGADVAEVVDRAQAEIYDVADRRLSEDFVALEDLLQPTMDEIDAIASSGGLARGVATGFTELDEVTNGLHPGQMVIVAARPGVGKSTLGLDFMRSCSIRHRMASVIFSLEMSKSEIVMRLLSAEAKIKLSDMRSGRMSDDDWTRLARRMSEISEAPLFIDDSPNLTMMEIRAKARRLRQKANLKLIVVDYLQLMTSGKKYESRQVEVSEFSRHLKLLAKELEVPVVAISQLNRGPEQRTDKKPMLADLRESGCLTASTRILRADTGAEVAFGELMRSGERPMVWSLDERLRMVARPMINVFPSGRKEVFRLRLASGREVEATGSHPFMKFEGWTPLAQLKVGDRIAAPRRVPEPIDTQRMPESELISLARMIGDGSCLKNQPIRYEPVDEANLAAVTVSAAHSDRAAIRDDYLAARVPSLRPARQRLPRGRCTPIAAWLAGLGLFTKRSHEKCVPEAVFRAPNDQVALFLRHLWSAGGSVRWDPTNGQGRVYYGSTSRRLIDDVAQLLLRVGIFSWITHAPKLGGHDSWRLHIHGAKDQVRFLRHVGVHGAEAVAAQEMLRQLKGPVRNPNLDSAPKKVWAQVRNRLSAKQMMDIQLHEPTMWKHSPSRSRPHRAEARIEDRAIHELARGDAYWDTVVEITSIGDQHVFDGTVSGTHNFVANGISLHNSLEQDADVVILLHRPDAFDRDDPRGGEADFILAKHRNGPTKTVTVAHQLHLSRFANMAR

Protein RecA = molecular target: T5, Protein RecA (Mycobacterium tuberculosis, UniProt P9WHJ3); assay: Fluorescence Cell-Free Homogeneous Dose Retest to Identify Inhibitors of RecA-Intein Splicing Activity. [Related pubchem assays (depositor defined):AID2097, AID2223, AID489010, AID492950]; type: functional
T5 sequence (P9WHJ3 whole entry): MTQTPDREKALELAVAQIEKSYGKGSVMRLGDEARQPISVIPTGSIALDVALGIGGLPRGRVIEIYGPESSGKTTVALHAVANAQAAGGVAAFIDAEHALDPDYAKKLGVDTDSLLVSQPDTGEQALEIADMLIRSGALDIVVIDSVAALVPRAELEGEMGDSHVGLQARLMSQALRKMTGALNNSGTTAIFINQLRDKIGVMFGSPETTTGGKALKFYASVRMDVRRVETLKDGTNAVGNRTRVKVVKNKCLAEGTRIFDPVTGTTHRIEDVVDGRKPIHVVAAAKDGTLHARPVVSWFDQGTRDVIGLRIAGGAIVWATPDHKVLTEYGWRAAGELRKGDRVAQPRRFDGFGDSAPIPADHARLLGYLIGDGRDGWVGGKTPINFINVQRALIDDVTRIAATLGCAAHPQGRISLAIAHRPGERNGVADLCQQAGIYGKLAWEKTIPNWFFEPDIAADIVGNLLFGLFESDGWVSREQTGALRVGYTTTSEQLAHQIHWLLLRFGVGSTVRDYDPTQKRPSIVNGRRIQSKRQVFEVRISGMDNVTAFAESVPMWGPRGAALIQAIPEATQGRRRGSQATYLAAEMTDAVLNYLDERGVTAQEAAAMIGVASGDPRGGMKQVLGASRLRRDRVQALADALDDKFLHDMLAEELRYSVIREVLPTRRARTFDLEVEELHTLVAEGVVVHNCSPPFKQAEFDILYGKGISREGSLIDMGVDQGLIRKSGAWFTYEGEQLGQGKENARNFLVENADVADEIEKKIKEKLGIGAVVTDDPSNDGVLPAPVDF

[14] = molecular target: T6, Long-chain-fatty-acid--AMP ligase FadD28 (Mycobacterium tuberculosis, UniProt P9WQ59); assay: Fluorescence polarization aasay to screen for inhibitors that compete for the binding of FadD28 to a bisubstrate Measured in Biochemical System Using Plate Reader - 2147-01_Inhibitor_Dose_CherryPick_Activity.; type: functional, Mycobacterium tuberculosis H37Rv
T6 sequence (P9WQ59 whole entry): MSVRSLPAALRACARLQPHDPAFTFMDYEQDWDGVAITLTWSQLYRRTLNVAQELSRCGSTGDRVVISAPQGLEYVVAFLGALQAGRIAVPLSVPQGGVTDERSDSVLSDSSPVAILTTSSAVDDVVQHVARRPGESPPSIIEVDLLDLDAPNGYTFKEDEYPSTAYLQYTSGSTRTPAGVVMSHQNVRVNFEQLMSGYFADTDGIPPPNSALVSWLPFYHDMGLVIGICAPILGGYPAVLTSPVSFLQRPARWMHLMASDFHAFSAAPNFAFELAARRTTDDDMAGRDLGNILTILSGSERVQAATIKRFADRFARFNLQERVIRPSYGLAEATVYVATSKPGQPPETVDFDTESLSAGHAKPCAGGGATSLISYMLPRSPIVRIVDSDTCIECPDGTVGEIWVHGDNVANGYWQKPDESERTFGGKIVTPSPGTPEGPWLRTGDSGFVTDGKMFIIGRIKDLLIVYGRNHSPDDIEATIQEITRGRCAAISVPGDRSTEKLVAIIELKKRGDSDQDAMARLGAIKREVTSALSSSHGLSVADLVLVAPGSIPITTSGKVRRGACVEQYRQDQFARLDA

Chain of Cytochrome P450 3A4 (P08684 whole entry): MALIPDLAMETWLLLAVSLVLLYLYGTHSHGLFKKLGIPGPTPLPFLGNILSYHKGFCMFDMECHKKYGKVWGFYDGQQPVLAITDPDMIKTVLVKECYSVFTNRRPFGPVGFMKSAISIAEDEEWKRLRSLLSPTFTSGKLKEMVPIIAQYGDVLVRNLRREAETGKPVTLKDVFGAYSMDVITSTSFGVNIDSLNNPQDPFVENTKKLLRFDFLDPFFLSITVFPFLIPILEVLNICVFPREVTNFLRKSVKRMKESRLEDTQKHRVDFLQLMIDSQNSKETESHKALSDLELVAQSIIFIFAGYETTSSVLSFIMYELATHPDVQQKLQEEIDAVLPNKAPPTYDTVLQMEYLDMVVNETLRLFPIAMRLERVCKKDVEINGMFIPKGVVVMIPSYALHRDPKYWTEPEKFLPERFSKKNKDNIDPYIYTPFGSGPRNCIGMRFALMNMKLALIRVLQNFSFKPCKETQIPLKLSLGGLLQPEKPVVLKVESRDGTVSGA
Chain of Paired box protein Pax-8 (Q06710 whole entry): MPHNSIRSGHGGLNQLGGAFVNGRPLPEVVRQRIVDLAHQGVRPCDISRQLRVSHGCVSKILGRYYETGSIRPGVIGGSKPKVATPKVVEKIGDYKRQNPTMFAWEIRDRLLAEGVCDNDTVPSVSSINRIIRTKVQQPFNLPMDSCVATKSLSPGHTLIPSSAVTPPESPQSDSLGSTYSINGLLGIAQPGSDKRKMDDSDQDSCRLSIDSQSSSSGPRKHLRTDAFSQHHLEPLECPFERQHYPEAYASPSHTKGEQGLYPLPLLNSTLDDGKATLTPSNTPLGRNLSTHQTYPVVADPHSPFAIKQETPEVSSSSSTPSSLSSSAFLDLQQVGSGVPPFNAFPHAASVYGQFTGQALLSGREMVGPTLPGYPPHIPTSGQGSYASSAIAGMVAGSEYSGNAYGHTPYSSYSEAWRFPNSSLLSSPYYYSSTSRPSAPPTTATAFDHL

In the case of `Cn1ncc2c(Nc3cccc(C(=O)O)c3)ncnc21`, the AC50 (Cytochrome P450 3A4) was “inconclusive”.
In the case of `CCC(=O)O[C@H](CC(=O)[O-])C[N+](C)(C)C`, the AC50 (Cytochrome P450 1A2 [1]) was “inconclusive”.
For `COc1ccc(CCN(C)CCC[C@@](C#N)(c2cc(OC)c(OC)c(OC)c2)C(C)C)cc1OC`, the AC50 (Cytochrome P450 1A2 [1]) was “inactive”.
For `C/N=c1\scc(-c2ccccc2F)n1/N=C/c1ccc[nH]1`, the EC50 [2] was < 0.16 µM (active), the IC50 (Jurkat) was 0.38 µM (active) and the IC50 [3] was > 80 µM (inactive). The AC50 [4] was 0.019 µM (active), the AC50 (Paired box protein Pax-8) was < 0.26 µM (active) and the IC50 [5] was 50.6 µM (inactive). For the same compound, the AC50 [6] was 44.3 µM (active).
In the case of `COC(=O)N1CCC2(CC1)CN(c1ccc(-c3ccccc3)cc1)C2`, the AC50 (Cytochrome P450 1A2 [7]) was 1.26 µM (inconclusive) and the AC50 (Cytochrome P450 3A4) was “inconclusive”.
With `O=C(CCl)N(c1ccccc1)C1CCS(=O)(=O)C1` (stereo not given) the EC50 [8] was > 120 µM (not active), the CC50 [9] was 6.82 µM (active) and the EC50 (H4) was > 120 µM (not active). For the same compound, the AC50 [4] was 9.35 µM (active) and the AC50 (A-375) was 27.7 µM (active).
In the case of `O=C1C([N-]S(=O)(=O)c2cccs2)=C([n+]2ccccc2)C(=O)c2ccccc21`, the EC50 [10] was 12.9 µM (active), the EC50 [11] was 14.2 µM (active) and the EC50 [12] was > 120 µM (not active). The AC50 [4] was 1.07 µM (active), the AC50 [13] was 10.2 µM (active) and the EC50 (Protein RecA) was 6.59 µM (active). The AC50 (A-375) was 25.5 µM (active) and the AC50 [14] was > 100 µM (inactive).
